Columns and labels:
E-selectin = target: T1, E-selectin (Homo sapiens, UniProt P16581); assay: E-Selectin Activity - competitive binding assay (sLea polyacrylamide / immobilized E-selectin/Ig chimera); settings: inhibition of sLea conjugate binding to immobilized E-selectin/Ig chimera; read-out: IC50 (E-Selectin Antagonist Activity)
T1 construct: fused on or other part: Immunoglobulin (Ig) part fused to E-selectin as a handle for immobilisation
T1 sequence (P16581 22-175 limits assumed): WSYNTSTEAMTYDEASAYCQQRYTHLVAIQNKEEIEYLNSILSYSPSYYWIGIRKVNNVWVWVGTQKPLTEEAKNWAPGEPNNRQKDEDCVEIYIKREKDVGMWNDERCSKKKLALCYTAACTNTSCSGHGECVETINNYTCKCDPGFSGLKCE
Method: The inhibition assay to screen and characterize antagonists of E-selectin is a competitive binding assay, from which IC50 values may be determined. E-selectin/Ig chimera are immobilized in 96 well microtiter plates by incubation at 37° C. for 2 hours. To reduce nonspecific binding, bovine serum albumin is added to each well and incubated at room temperature for 2 hours. The plate is washed and serial dilutions of the test compounds are added to the wells in the presence of conjugates of biotinylated, sLea polyacrylamide with streptavidin/horseradish peroxidase and incubated for 2 hours at room temperature.
To determine the amount of sLe^a bound to immobilized E-selectin after washing, the peroxidase substrate, 3,3′,5,5′ tetramethylbenzidine (TMB) is added. After 3 minutes, the enzyme reaction is stopped by the addition of H3PO4, and the absorbance of light at a wavelength of 450 nm is determined. The concentration of test compound required to inhibit binding by 50% is determined.

[1] = test system: relapsed or refractory AML; assay: Phase I/II trial of Formula I in combination with chemotherapy for AML; format: in vivo, human; settings: for overall survival (OS): Formula I plus chemotherapy
Method: Phase I/II trial of Formula I in combination with chemotherapy for AML: A specific glycomimetic antagonist of E-selectin (Formula I) was rationally designed based on the bioactive conformation of sialyl Le^a/x in the binding site of E-selectin. Treatment of AML relapsed/refractory patients with the compound of Formula I and chemotherapy were evaluated for response. In a Phase I trial, 19 patients were treated with the compound of Formula I twice a day at 5 mg/kg (n=6), 10 mg/kg (n=7), and 20 mg/kg doses (n=6), in combination with induction MEC (mitoxantrone, epotoside, and cytarabine) chemotherapy. In a Phase II trial, the treatment regimen comprised one 10 mg/kg dose of the compound of Formula I 24 hours prior to chemotherapy, then twice daily 10 mg/kg doses of the compound of Formula I throughout either MEC (mitoxantrone, etoposide, and cytarabine) or 7+3 (cytarabine for 7 days followed by 3 days of daunorubicin, idarubicin or mitoxantrone) chemotherapy up till 48 hours post-chemotherapy. AML blasts from the patients' bone marrow and peripheral blood were isolated, and the expression of E-selectin ligand on the blasts was measured using immunofluorescence. Patient response to treatment was also assessed.

| Structure (SMILES) | IC50 (E-selectin) [nM] | overall survival (OS) ([1]; patients with greater than 10% of blasts expressing E-selectin ligand (HECA-452; high expressers)) [months] | overall survival (OS) ([1]; patients with less than 10% blasts expressing E-selectin ligand (HECA-452; low expressers)) [months] | response rate (CR/CRi) ([1]; patients with relapsed or refractory AML, compound of Formula I plus chemotherapy) [%] | CR/CRi rate after a single course of induction treatment ([1]; relapsed or refractory AML, single course of induction, higher than historical controls treated with MEC) [%] |
| --- | --- | --- | --- | --- | --- |
| CCC1CC(C(=O)NCCNC(=O)c2cn(CC(COS(=O)(=O)O)(COS(=O)(=O)O)COS(=O)(=O)O)nn2)C[C@@H](O[C@@H]2OC(CO)[C@H](O)C(O[C@@H](CC3CCCCC3)C(=O)O)C2NC(=O)Cn2cc(COCCOCCOCCOCCOCc3cn(CC(=O)NC4C(O[C@@H](CC5CCCCC5)C(=O)O)[C@@H](O)C(CO)O[C@H]4O[C@@H]4CC(C(=O)NCCNC(=O)c5cn(CC(COS(=O)(=O)O)(COS(=O)(=O)O)COS(=O)(=O)O)nn5)CC(CC)C4O[C@@H]4OC(C)[C@@H](O)C(O)C4O)nn3)nn2)C1O[C@@H]1OC(C)[C@@H](O)C(O)C1O (some centres unmarked) [Compound 206] | 1.6 | – | – | – | – |
| CCC1CC(C(=O)NCCNC(=O)CCOCCOCCOCCOCCOCCOCCOCCOCCOCCOCCOCCOC)C[C@@H](O[C@@H]2O[C@@H](CO)[C@H](O)C(O[C@@H](CC3CCCCC3)C(=O)O)C2NC(C)=O)[C@@H]1OC1O[C@@H](C)[C@H](O)C(O)[C@@H]1O (some centres unmarked) [compound of Formula I] | – | 12.7 | 5.2 | 41 | 47 |
